This passage reports solubility in water results from patent US6909023B2, “Production method for benzenedimethanol compound” (Showa Denko K.K., priority 2000, dated 2005).

A short description of the series: solubility in water at room temperature.

As for `OCc1c(F)c(F)c(CO)c(F)c1F` [2,3,5,6-tetrafluorobenzenedimethanol], the solubility in water entry is recorded as “about 25 g/L”.
